Measured values: US9271967B2, “1,2,4-triazolo[4,3-a]pyridine derivatives and their use as positive allosteric modulators of mGluR2 receptors” (Janssen Pharmaceuticals, Inc., priority 2010, dated 2016)

Experiments:
human mGluR2 receptor = target: T1, human mGluR2 receptor (Homo sapiens, UniProt Q14416); test: [35S]GTPγS binding assay (PAM assay); format: biochemical; settings: in presence of glutamate at EC20; for GTPγS-hmGluR2 PAM Emax / Emax: maximal % effect relative to the control glutamate response; for EC50: membranes of CHO cells transfected with human mGluR2, -log EC50 in M, read-out: GTPγS-hmGluR2 PAM pEC50 (converted); for Emax: read-out: GTPγS-hmGluR2 PAM Emax
T1 construct: expressed in transfected cells; host or cells: CHO cells
T1 sequence (Q14416 19-872): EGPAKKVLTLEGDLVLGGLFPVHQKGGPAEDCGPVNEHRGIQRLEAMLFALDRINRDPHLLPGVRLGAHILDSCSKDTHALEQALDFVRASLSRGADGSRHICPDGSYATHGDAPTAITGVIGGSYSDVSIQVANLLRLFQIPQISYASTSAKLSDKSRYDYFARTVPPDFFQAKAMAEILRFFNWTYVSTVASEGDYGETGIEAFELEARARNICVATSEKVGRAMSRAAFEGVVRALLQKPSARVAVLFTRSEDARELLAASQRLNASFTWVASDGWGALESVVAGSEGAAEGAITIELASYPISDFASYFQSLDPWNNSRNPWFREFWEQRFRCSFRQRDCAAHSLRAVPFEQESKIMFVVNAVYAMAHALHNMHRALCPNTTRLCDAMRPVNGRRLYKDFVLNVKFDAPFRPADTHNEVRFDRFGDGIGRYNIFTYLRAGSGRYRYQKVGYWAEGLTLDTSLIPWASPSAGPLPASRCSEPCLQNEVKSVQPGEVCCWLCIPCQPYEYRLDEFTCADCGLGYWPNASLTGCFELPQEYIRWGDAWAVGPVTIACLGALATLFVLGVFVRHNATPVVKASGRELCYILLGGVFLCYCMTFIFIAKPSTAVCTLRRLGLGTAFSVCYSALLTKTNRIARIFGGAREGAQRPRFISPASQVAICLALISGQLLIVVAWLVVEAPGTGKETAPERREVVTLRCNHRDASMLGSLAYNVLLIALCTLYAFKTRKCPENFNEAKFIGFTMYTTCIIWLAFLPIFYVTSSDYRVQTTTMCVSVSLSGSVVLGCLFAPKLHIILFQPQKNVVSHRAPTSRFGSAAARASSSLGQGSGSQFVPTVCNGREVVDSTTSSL
Method: The [^35S]GTPγS binding assay is a functional membrane-based assay used to study G-protein coupled receptor (GPCR) function whereby incorporation of a non-hydrolysable form of GTP, [^35S]GTPγS (guanosine 5′-triphosphate, labelled with […] ^35S), is measured. The G-protein α subunit catalyzes the exchange of guanosine 5′-diphosphate (GDP) by guanosine triphosphate (GTP) and on activation of the GPCR by an agonist, [^35S]GTPγS, becomes incorporated and cannot be cleaved to continue the exchange cycle (Harper (1998) Current Protocols in Pharmacology 2.6.1-10, John Wiley & Sons, Inc.). […] Here we describe the use of the [^35S]GTPγS binding assay using membranes from cells transfected with the human mGluR2 receptor and adapted from Schaffhauser et al. ((2003) Molecular Pharmacology 4:798-810) for the detection of the positive allosteric modulation (PAM) properties of the compounds of this invention.
CHO-cells were cultured to pre-confluence and stimulated with 5 mM butyrate for 24 h. Cells were then collected by scraping in PBS and cell suspension was centrifuged (10 min at 4000 RPM in benchtop centrifuge). Supernatant was discarded and pellet gently resuspended in 50 mM Tris-HCl, pH 7.4 by mixing with a vortex and pipetting up and down. The suspension was centrifuged at 16,000 RPM (Sorvall RC-5C plus rotor SS-34) for 10 minutes and the supernatant discarded. The pellet was homogenized in 5 mM Tris-HCl, pH 7.4 using an ultra-turrax homogenizer and centrifuged again (18,000 RPM, 20 min, 4° C.). The final pellet was resuspended in 50 mM Tris-HCl, pH 7.4 and stored at −80° C. in appropriate aliquots before use. Protein concentration was determined by the Bradford method (Bio-Rad, USA) with bovine serum albumin as standard.
Measurement of mGluR2 positive allosteric modulatory activity of test compounds was performed as follows. Test compounds and glutamate were diluted in assay buffer containing 10 mM HEPES acid, 10 mM HEPES salt, pH 7.4, 100 mM NaCl, 3 mM MgCl2 and 10 μM GDP. Human mGlu2 receptor-containing membranes were thawed on ice and diluted in assay buffer supplemented with 14 μg/ml saponin. Membranes were pre-incubated with compound alone or together with a predefined (˜EC20) concentration of glutamate (PAM assay) for 30 min at 30° C. After addition of [^35S]GTPγS (f.c. 0.1 nM), assay mixtures were shaken briefly and further incubated to allow [^35S]GTPγS incorporation on activation (30 minutes, 30° C.). Final assay mixtures contained 7 μg of membrane protein in 10 mM HEPES acid, 10 mM HEPES salt, pH 7.4, 100 mM NaCl, 3 mM MgCl2, 10 μM GDP and 10 μg/ml saponin. Total reaction volume was 200 μl. Reactions were terminated by rapid filtration through Unifilter-96 GF/B plates (Perkin Elmer, Mass., USA) using a 96-well filtermate universal harvester. Filters were washed 6 times with ice-cold 10 mM NaH2PO4/10 mM Na2HPO4, pH 7.4. Filters were then air-dried, and 40 μl of liquid scintillation cocktail (Microscint-O) was added to each well. Membrane-bound radioactivity was counted in a Microplate Scintillation and Luminescence Counter from Perkin Elmer.
The concentration-response curves of representative compounds of the present invention—obtained in the presence of EC20 of mGluR2 agonist glutamate to determine positive allosteric modulation (PAM)—were generated using the Lexis software interface (developed at J&J). Data were calculated as % of the control glutamate response, defined as the maximal response that is generated upon addition of glutamate alone. Sigmoid concentration-response curves plotting these percentages versus the log concentration of the test compound were analyzed using non-linear regression analysis. The concentration producing half-maximal effect is then calculated as EC50. The pEC50 values below were calculated as the −log EC50, when the EC50 is expressed in M. Emax is defined as relative maximal effect (i.e. maximal % effect relative to the control glutamate response).

SMILES | GTPγS-hmGluR2 PAM Emax (human mGluR2 receptor; listed as 28a) [%] | EC50 (human mGluR2 receptor) [nM] | GTPγS-hmGluR2 PAM Emax (human mGluR2 receptor; listed as 28b) [%] | Emax (human mGluR2 receptor) [%] | melting point [°C]
FC(F)(F)c1c(CNC2CCOc3ccccc32)ccn2c(CC3CC3)nnc12 (single isomer, unassigned) [Co. no. 28a, (4*R)—N-{[3-(Cyclopropylmethyl)-8-(trifluoromethyl) [1,2,4]triazolo[4,3-a]pyridin-7-yl]methyl}-3,4-dihydro-2H-chromen-4-amine] | 257 | 794 | – | – | –
FC(F)(F)c1c(CNC2CCOc3ccccc32)ccn2c(CC3CC3)nnc12 (single isomer, unassigned) [Co. no. 28b, (4*S)—N-{[3-(Cyclopropylmethyl)-8-(trifluoromethyl) [1,2,4]triazolo[4,3-a]pyridin-7-yl]methyl}-3,4-dihydro-2H-chromen-4-amine] | – | 575 | 285 | – | –
Fc1ccc(N2CCC(NCc3ccn4c(CC5CC5)nnc4c3C(F)(F)F)CC2)c(F)c1 [Co. no. 2, 3-(Cyclopropylmethyl)-N-[1-(2,4-difluorophenyl)-4-piperidinyl]-8-(trifluoromethyl)-1,2,4-triazolo[4,3-a]pyridine-7-methanamine] | – | 617 | – | 321 | –
FC(F)(F)c1c(CN[C@H]2CC[C@H](c3ccccc3)CC2)ccn2c(CC3CC3)nnc12 [Co. no. 3, 3-(Cyclopropylmethyl)-N-(trans-4-phenylcyclohexyl)-8-(trifluoromethyl)-1,2,4-triazolo[4,3-a]pyridine-7-methanamine] | – | 234 | – | 235 | 157.4
CCc1nnc2c(C(F)(F)F)c(CN[C@H]3CC[C@H](c4ccccc4)CC3)ccn12 [Co. no. 4, 3-Ethyl-N-(trans-4-phenylcyclohexyl)-8-(trifluoromethyl)-1,2,4-triazolo[4,3-a]-pyridine-7-methanamine] | – | 1200 | – | 197 | –
FC(F)(F)c1c(CNC2Cc3ccccc3C2)ccn2c(CC3CC3)nnc12 [Co. no. 6, 3-(Cyclopropylmethyl)-N-(2,3-dihydro-1H-inden-2-yl)-8-(trifluoromethyl)-1,2,4-triazolo[4,3-a]pyridine-7-methanamine] | – | 794 | – | 227 | –
CCc1nnc2c(C(F)(F)F)c(CN[C@H]3CC[C@@H](c4ccc(F)cc4F)CC3)ccn12 [Co. no. 9, N-[Cis-4-(2,4-difluorophenyl)cyclohexyl]-3-ethyl-8-(trifluoromethyl)-1,2,4-triazolo[4,3-a]pyridine-7-methanamine] | – | 209 | – | 209 | –
CCOCc1nnc2c(C(F)(F)F)c(CN[C@H]3CC[C@@H](c4ccccc4)CC3)ccn12 [Co. no. 10, 3-(Ethoxymethyl)-N-(cis-4-phenylcyclohexyl)-8-(trifluoromethyl)-1,2,4-triazolo-[4,3-a]pyridine-7-methanamine] | – | 170 | – | 242 | –
CCOCc1nnc2c(C(F)(F)F)c(CN[C@H]3CC[C@H](c4ccccc4)CC3)ccn12 [Co. no. 11, 3-(Ethoxymethyl)-N-(trans-4-phenylcyclohexyl)-8-(trifluoromethyl)-1,2,4-triazolo-[4,3-a]pyridine-7-methanamine] | – | – | – | 278 | –
FC(F)(F)c1c(CNC2CC2c2ccccc2)ccn2c(CC3CC3)nnc12 (stereo not drawn) [Co. no. 27, Trans-N-{[3-(Cyclopropylmethyl)-8-(trifluoromethyl)[1,2,4]triazolo[4,3-a]pyridin-7-yl]methyl}-2-phenylcyclopropanamine] | – | 871 | – | 267 | –
FC(F)(F)c1c(CN[C@H]2CCO[C@H](c3ccccc3)C2)ccn2c(CC3CC3)nnc12 [Co. no. 29, (2S,4S)—N-{[3-(Cyclopropylmethyl)-8-(trifluoromethyl) [1,2,4]triazolo[4,3-a]pyridin-7-yl]methyl}-2-phenyltetrahydro-2H-pyran-4-amine] | – | – | – | 209 | 95.8
FC(F)(F)c1c(CNC2COCC2c2ccccc2)ccn2c(CC3CC3)nnc12 (stereo not drawn) [Co. no. 31, Cis-N-{[3-(Cyclopropylmethyl)-8-(trifluoromethyl) [1,2,4]triazolo[4,3-a]pyridin-7-yl]methyl}-4-phenyltetrahydrofuran-3-amine] | – | – | – | 201 | –

The next lines start with the values.

GTPγS-hmGluR2 PAM Emax (human mGluR2 receptor; listed as 28a) [%] | EC50 (human mGluR2 receptor) [nM] | GTPγS-hmGluR2 PAM Emax (human mGluR2 receptor; listed as 28b) [%] | Emax (human mGluR2 receptor) [%] | melting point [°C] | SMILES
– | 42.7 | – | 263 | – | FC(F)(F)c1c(CN[C@H]2CC[C@@H](c3ccccc3)CC2)ccn2c(CC3CC3)nnc12 [Co. no. 7, 3-(Cyclopropylmethyl)-N-(cis-4-phenylcyclohexyl)-8-(trifluoromethyl)-1,2,4-triazolo-[4,3-a]pyridine-7-methanamine]
– | 324 | – | 228 | – | CCc1nnc2c(C(F)(F)F)c(CN[C@H]3CC[C@@H](c4ccccc4)CC3)ccn12 [Co. no. 8, 3-Ethyl-N-(cis-4-phenylcyclohexyl)-8-(trifluoromethyl)-1,2,4-triazolo[4,3-a]pyridine-7-methanamine]
– | 589 | – | 257 | – | Clc1c(CN[C@H]2CC[C@@H](c3ccccc3)CC2)ccn2c(CC3CC3)nnc12 [Co. no. 12, 8-Chloro-3-(cyclopropylmethyl)-N-(cis-4-phenylcyclohexyl)-1,2,4-triazolo-[4,3-a]pyridine-7-methanamine]
– | – | – | 243 | – | Clc1c(CN[C@H]2CC[C@H](c3ccccc3)CC2)ccn2c(CC3CC3)nnc12 [Co. no. 13, 8-Chloro-3-(cyclopropylmethyl)-N-(trans-4-phenylcyclohexyl)-1,2,4-triazolo-[4,3-a]pyridine-7-methanamine]
– | 1200 | – | 239 | 139.6 | FC(F)(F)c1c(CN[C@@H]2CCO[C@@H](c3ccccc3)C2)ccn2c(CC3CC3)nnc12 [Co. no. 30, (2R,4R)—N-{[3-(Cyclopropylmethyl)-8-(trifluoromethyl)[1,2,4]triazolo[4,3-a]pyridin-7-yl]methyl}-2-phenyltetrahydro-2H-pyran-4-amine]
